Literature values as cited in patent US10143639B2, “Use of adelmidrol and other topical or oral cannabinomimetic or aliamide mast cell inhibitors to treat dermatoheliosis, seborrheic keratoses, and androgenetic alopecia” (priority 2017, dated 2018).

Key:
hair growth in mice = details: applied to the skin of mice
AGA patients = details: share of treated AGA patients improving
AGA scalp = details: topical application, especially in subjects already taking finasteride

Structure (SMILES): CCCCCCCCCCCCCCCC(=O)NCCO [PEA, palmitoylethanolamide]
- pro-inflammatory effects of NGF (NGF): turned off the pro-inflammatory effects of NGF

Structure (SMILES): CCCCC[C@H](O)/C=C/[C@H]1C(=O)C[C@H](O)[C@@H]1C/C=C\CCCC(=O)O [PGD2, Prostaglandin D2]
- hair growth (hair growth in mice): stopped hair growth

Structure (SMILES): CC(C)(C)NC(=O)[C@H]1CC[C@H]2[C@@H]3CC[C@H]4NC(=O)C=C[C@]4(C)[C@H]3CC[C@]12C [finasteride]
- clinical improvement in treated AGA patients (AGA patients): 50-60%

Structure (SMILES): CCCCC/C=C\C/C=C\CCCCCCCC(=O)O [linoleic acid]
- hair growth (AGA scalp): improved hair growth
